Patent publication US20250205186A1, “USE OF CHLOROGENIC ACID IN PREPARING MEDICINE OR PHARMACEUTICAL COMPOSITION FOR PREVENTING OR TREATING PAIN” (SICHUAN JIUZHANG BIOLOGICAL SCIENCE AND TECHNOLOGY CO., LTD., priority 2019, published 2025)

How the values were obtained:
Type in all cases: in vivo, rat
TNF-α = assay: Serum TNF-α content by ELISA in bone cancer pain rats; settings: for Cytokines TNF-α content in serum: after 15 days of administration; for Serum level of TNF-α compared with the model-negative group: after 15 days
Experimental: (§1) 60 SD rats were randomly selected, and after anesthesia, a small 1 cm incision was made in the upper tibial skin. A 10 mL syringe needle was used to puncture and perforate, then a 10 μL syringe was inserted into the bone marrow cavity, and 3 μL cell suspension containing 3×10^3 Walker rat breast cancer cells was slowly injected. The pinhole was sealed with bone wax, and the skin was sutured. After surgery, the rats were placed on a 37° C. hot plate for rewarming. After recovery, rats were returned to the cage for further breeding, to obtain the model group. In addition, 8 SD rats were randomly selected, and an equal volume of PBS solution was injected into the marrow cavity of the left upper tibia. The rest of the operations were the same as the model group, to obtain the sham operation group. The rats that had been successfully modeled were randomly divided into groups, eight rats for each group, that included high-dose chlorogenic acid group (80 mg/kg), middle-dose chlorogenic acid group (40 mg/kg), low-dose chlorogenic acid group (20 mg/kg), model negative group (N.S normal saline), and sham operation group (N.S normal saline). The rats were intraperitoneally injected with drugs for 15 days in a volume of 0.2 mL/10 g, once a day; the model-negative group and the sham operation group were given the same volume of normal saline. After the last administration, blood was collected from the eyeballs of the rats, and the animals in each group were sacrificed by neck removal. The blood samples were allowed to stand at room temperature for 20 minutes and then centrifuged. The supernatant was collected and the contents of TNF-α, IL-1β, and IL-6 in the peripheral blood serum of the […] were determined by ELISA.

NE = NE content in brain tissue by HPLC-EC in bone cancer pain rats; settings: for NE content in the brain tissue: after 15 days of administration
Experimental: 60 SD rats were randomly selected, and after anesthesia, a small 1 cm incision was made in the upper tibial skin. A 10 mL syringe needle was used to puncture and perforate, then a 10 μL syringe was inserted into the bone marrow cavity, and 3 μL cell suspension containing […] Walker rat breast cancer cells was slowly injected. The pinhole was sealed with bone wax, and the skin was sutured. After surgery, the rats were placed on a 37° C. hot plate for rewarming. After recovery, rats were returned to the cage for further breeding, to obtain the model group. In addition, 8 SD rats were randomly selected, and an equal volume of PBS solution was injected into the marrow cavity of the left upper tibia. The rest of the operations were the same as the model group, to obtain the sham operation group. The rats that had been successfully modeled were randomly divided into groups, eight rats for each group, that included high-dose chlorogenic acid group (80 mg/kg), middle-dose chlorogenic acid group (40 mg/kg), low-dose chlorogenic acid group (20 mg/kg), model negative group (N.S normal saline), and sham operation group (N.S normal saline). The rats were intraperitoneally injected with drugs for 15 days in a volume of 0.2 mL/10 g, once a day; the model-negative group and the sham operation group were given the same volume of normal saline. After the rats were sacrificed, the hypothalamus was quickly separated, homogenized in an ice bath with perchloric acid, and centrifuged. The supernatant was collected, and the contents of NE, DA, and 5-HT were determined by HPLC-EC method (Hou […], Wang Na, et al, Effects of progesterone on morphine-induced conditioned place preference and levels of monoamine transmitters in rat brain. Chinese Journal of Pharmacology, 2006, 22(8), 980-983).

IL-1β = assay: Serum IL-1β content by ELISA in bone cancer pain rats; settings: for Cytokines IL-1β content in serum: after 15 days of administration; for Serum level of IL-1β compared with the model-negative group: after 15 days
Experimental: as §1

O=C(/C=C/c1ccc(O)c(O)c1)O[C@@H]1C[C@](O)(C(=O)O)C[C@@H](O)[C@H]1O [Chlorogenic acid]
Cytokines TNF-α content in serum (TNF-α; 20 mg/kg ip once a day): 39.74 ± 6.04 ng/L
Serum level of TNF-α compared with the model-negative group (TNF-α; 20 mg/kg, p<0.05): lower than those in the model-negative group
Cytokines TNF-α content in serum (TNF-α; 40 mg/kg ip once a day): 35.25 ± 4.62 ng/L
Serum level of TNF-α compared with the model-negative group (TNF-α; 40 mg/kg, p<0.05): lower than those in the model-negative group
Cytokines TNF-α content in serum (TNF-α; 80 mg/kg ip once a day): 54.48 ± 5.99 ng/L
Serum level of TNF-α compared with the model-negative group (TNF-α; 80 mg/kg): the difference was not significant
NE content in the brain tissue (NE; 20 mg/kg ip once a day): 0.99 ± 0.18 nmol/g
NE content in brain tissue compared with the model-negative group (NE; 20 mg/kg, p<0.05): the difference was significant
NE content in the brain tissue (NE; 40 mg/kg ip once a day): 0.91 ± 0.15 nmol/g
NE content in brain tissue compared with the model-negative group (NE; 40 mg/kg, p<0.05): the difference was significant
NE content in the brain tissue (NE; 80 mg/kg ip once a day): 1.47 ± 0.26 nmol/g
NE content in brain tissue compared with the model-negative group (NE; 80 mg/kg, p>0.05): no significant difference
Cytokines IL-1β content in serum (IL-1β; 20 mg/kg ip once a day): 58.54 ± 8.23 ng/L
Serum level of IL-1β compared with the model-negative group (IL-1β; 20 mg/kg, p<0.05): lower than those in the model-negative group
Cytokines IL-1β content in serum (IL-1β; 40 mg/kg ip once a day): 52.71 ± 6.39 ng/L
Serum level of IL-1β compared with the model-negative group (IL-1β; 40 mg/kg, p<0.05): lower than those in the model-negative group
Cytokines IL-1β content in serum (IL-1β; 80 mg/kg ip once a day): 76.25 ± 4.62 ng/L
Serum level of IL-1β compared with the model-negative group (IL-1β; 80 mg/kg): the difference was not significant
